Assay results published in paper PMC4434089 (Biotechnology, Biotechnological Equipment, 2014).
Marks after values point to notes of the source that are not given here.

Legend:
amylin = test: NTA of amylin aggregation, alone or with amylin derivatives; assay type: biochemical, human; settings: for implied effect on fibrillogenesis of amylin: NTA compared with previously published reports; for Concentration of aggregates 100–150 nm, 10 min / Concentration of aggregates 200–300 nm, 10 min / Concentration of aggregates 150–200 nm, 10 min / Concentration of aggregates 100–150 nm, 24 h / Concentration of aggregates 200–300 nm, 24 h / Concentration of aggregates 150–200 nm, 24 h: 37 °C, amylin 50 μmol L^−1 alone (A) or with 250 μmol L^−1 derivative, pH 7.4, duplicate; for Concentration of aggregates 100–150 nm, 10 min: 10 mmol L^−1 sodium phosphate, 50 mmol L^−1 NaCl; for Concentration of aggregates 100–150 nm, 10 min / Concentration of aggregates 150–200 nm, 10 min: p < 0.05 less than A: n1, n5, m5; for Concentration of aggregates 200–300 nm, 10 min: p < 0.05 less than A: n1, n3, n5, m1, m2, m3, m4, m5; for Concentration of aggregates 100–150 nm, 24 h: p < 0.05 less than A: n1, n2, m5, significantly more: m2; for Concentration of aggregates 200–300 nm, 24 h: p < 0.05 less than A: n1, n2, n3, n4, n5, m5; for Concentration of aggregates 150–200 nm, 24 h: p < 0.05 less than A: n1, n2, n5, m5; for number of 200–300 nm aggregates at 24 h vs amylin only: amylin:derivative 50:250 μmol L^−1, p < 0.05; for effect on amylin aggregation over 24 h: all size ranges, amylin:derivative 50:250 μmol L^−1, vs amylin only; for concentration of 200–300 nm aggregates, with derivative: similar to or more than amylin only
Protocol: NTA measurements were performed with a NanoSight LM20 instrument (NanoSight, United Kingdom) equipped with a 640 nm laser and a temperature controlled sample chamber. […] The sample temperature was maintained at 37 °C for the entire duration of the experiment. These experimental conditions were similar to that used for a previously reported cytotoxicity experiment,[73] thus allowing correlation of results obtained from the two techniques. […] Once again, samples were maintained at 37 °C and 60 s video footage were recorded every 10 min for the first hour and then at 24 h. All videos were captured with the single shutter and gain modes. Analysis was performed using NanoSight NTA version 2.2 software with a viscosity setting of 0.70.

[1] = tested on: amylin-mediated cytotoxicity; set-up: method as in PMID 20093026; settings: cited from earlier work

Substance | implied effect on fibrillogenesis of amylin (amylin) | Concentration of aggregates 100–150 nm, 10 min (amylin; NTA, 10 min) | Concentration of aggregates 200–300 nm, 10 min (amylin; NTA, 10 min) | Concentration of aggregates 150–200 nm, 10 min (amylin; NTA, 10 min) | Concentration of aggregates 100–150 nm, 24 h (amylin; NTA) | Concentration of aggregates 200–300 nm, 24 h (amylin; NTA) | Concentration of aggregates 150–200 nm, 24 h (amylin; NTA) | number of 200–300 nm aggregates at 24 h vs amylin only (amylin; NTA) | effect on amylin aggregation over 24 h (amylin; NTA) | reduction of amylin-mediated cytotoxicity [1] | concentration of 200–300 nm aggregates, with derivative (amylin; NTA) | inhibitory effect on amylin-mediated cytotoxicity [1] | concentrations of 100–150, […]–200 and 200–300 nm aggregates at 10 min vs amylin only (amylin; NTA, 10 min, amylin:derivative 50:250 μmol L^−1, unpaired t-test)
STNVGS [n5] | increase fibrillogenesis of amylin to an aggregate that is larger than 1000 nm | 0.1* ×10^7 aggregates/mL | 0.5* ×10^7 aggregates/mL | 0.1* ×10^7 aggregates/mL | 2.4 ×10^7 aggregates/mL | 2.0* ×10^7 aggregates/mL | 1.4* ×10^7 aggregates/mL | significantly lower than in samples containing amylin only | small amount of aggregates of all size ranges which increases only marginally over 24 h | more than 40% |  |  | 
STNVGS* [m5] | inhibit fibrillogenesis | 0.9* ×10^7 aggregates/mL | 0.8* ×10^7 aggregates/mL | 0.8* ×10^7 aggregates/mL | 1.6* ×10^7 aggregates/mL | 1.4* ×10^7 aggregates/mL | 1.3* ×10^7 aggregates/mL | significantly lower than in samples containing amylin only | significantly fewer amylin aggregates of all size ranges | more than 40% |  |  | 
FLVHSS* [m3] |  | 2.1 ×10^7 aggregates/mL | 2.1* ×10^7 aggregates/mL | 1.6 ×10^7 aggregates/mL | 5.9 ×10^7 aggregates/mL | 4.7 ×10^7 aggregates/mL | 3.9 ×10^7 aggregates/mL |  |  |  | ≥ 2.7 × 10^7 aggregates per millilitre | not to have an inhibitory effect on amylin-mediated cytotoxicity | 
NFGAIL* [m4] |  | 2.7 ×10^7 aggregates/mL | 1.6* ×10^7 aggregates/mL | 1.5 ×10^7 aggregates/mL | 4.1 ×10^7 aggregates/mL | 3.3 ×10^7 aggregates/mL | 2.8 ×10^7 aggregates/mL |  |  |  | ≥ 2.7 × 10^7 aggregates per millilitre | not to have an inhibitory effect on amylin-mediated cytotoxicity | 
TQRLA [n2] | increase fibrillogenesis of amylin to an aggregate that is larger than 1000 nm | 4.3 ×10^7 aggregates/mL | 3.4 ×10^7 aggregates/mL | 2.5 ×10^7 aggregates/mL | 1.5* ×10^7 aggregates/mL | 2.1* ×10^7 aggregates/mL | 1.5* ×10^7 aggregates/mL | significantly lower than in samples containing amylin only |  | more than 40% |  |  | not significantly different
NTAT [n1] | inhibit fibrillogenesis | 0.5* ×10^7 aggregates/mL | 0.4* ×10^7 aggregates/mL | 0.5* ×10^7 aggregates/mL | 0.9* ×10^7 aggregates/mL | 0.8* ×10^7 aggregates/mL | 1.1* ×10^7 aggregates/mL | significantly lower than in samples containing amylin only | significantly less than that observed in samples containing disaggregated amylin only | more than 40% |  |  | 
